According to patent US20250179024A1, “AMYLOID AND ASSOCIATED PATHOLOGY MODULATORS AND METHODS THEREOF” (Jawaharlal Nehru Centre for Advanced Scientific Research, priority 2022, published 2025):

How the values were obtained:
Aβ fibrils = biological target: T1, Aβ fibrils (Homo sapiens, UniProt P05067); assay: Dot blot assay of Aβ fibrillar aggregation inhibition (OC antibody); format: biochemical; settings: Aβ 10 μM; for inhibition of the formation of Aβ fibrils: NMIs 20 μM, PBS pH 7.4, 37° C., 48 h
T1 construct: is a 42 amino acid proteolytic product from the amyloid precursor protein; purchased Invitrogen
Description: Aggregation modulation by toxic Aβ aggregates were assessed and were quantified by dot blot assay. Aβ peptide (10 μM) was dissolved in phosphate buffered saline (PBS, 10 mM, pH 7.4), incubated alone and with NMIs (20 μM) at 37° C. for 48 h. For concentration dependent inhibition, 10 μM Aβ peptide was incubated with 1, 2, 5, 10 and 20 μM of NMIs and incubated. Samples for oligomer inhibition studies were prepared by incubating Aβ alone and with NMIs at 4° C. for 24 and subjected to dot blot analysis. For dissolution studies, Aβ peptide alone was incubated in PBS for 48 h to prepare fibrils and then incubated with NMIs further for 48 h. For dot blot experiment, 5 μL of sample was blotted on activated PVDF (polyvinylidene fluoride) membrane in triplicates and air dried. The membrane was blocked with skimmed milk powder for 1 h at room temperature. The blot paper was washed with tris-buffered saline with 0.01% Tween 20 (TBST) three times for 5 min. Blot paper was treated with fibril specific OC primary antibody (Rabbit, 1:1000 dilution) overnight at 4° C. For oligomers blot A11 anti-oligomer antibody (Rabbit 1:1000) was used. Blot was washed thrice with TBST and treated with HRP-conjugated antirabbit secondary antibody (1:5000 dilutions) for 1 h at room temperature. The bolt was washed thrice for 5 min with TBST and developed with ECL reagent (Biorad) and imaged with ChemiDoc BioRad gel documentation system in autoexposure mode. Blots were analyzed and quantified by ImageJ software. The ability of the NMIs, the compounds of the present disclosure M1-M4 to inhibit Aβ aggregation and dissolve the preformed fibrillar aggregates was evaluated by dot blot assay as explained in Example 2 above. Aβ (10 μM) was incubated alone and with NMIs (20 μM) in phosphate buffer saline (PBS, 10 mM and pH 7.4) at 37° C. for 48 h to form Aβ fibrillar aggregates. The samples were blotted and probed with fibril-selective OC antibody (rabbit anti-human amyloid fibrils). […] M3 was further assessed for inhibitory effect at lower concentrations. […] It has been observed that the oligomers are a highly toxic species compared to Aβ fibrillar aggregates. The ability of NMIs (M3) to inhibit the formation of Aβ oligomers was assessed by dot blot assay. Aβ peptide (10 μM) was incubated with NMIs at 4° C. for 24 h followed by probing with A11 oligomer-specific antibody. […] Native PAGE and western blot analysis was carried out to understand the size distribution of Aβ aggregated species. […] In order to analyse the higher order aggregates not permeable in the gel matrix and the morphological characteristics, Aβ samples were subjected to atomic force microscopy (AFM) imaging.

SH-SY5Y cells [1] = assay: In cellulo antioxidant assay, rescue from H2O2 induced cell death (MTT); format: cell-based; settings: H2O2 200 μM, NMIs 20 μM, 18 h; H2O2 treated cells ~72%
Description: To assess in cellulo antioxidant activity of NMIs, rescue of neuronal cells from H2O2 induced cell death was assessed by MTT assay. The cells were seeded onto 96 well plate at seeding density of 25,000 cells per well. After 24 h cells were treated with H2O2 (200 μM) alone and with NMIs (20 μM) for 18 h. H2O2 treatment result in neuronal cell death and potent antioxidant molecule rescue cells. The cell viability was assessed by MTT assay and percentage cell viability was calculated. ABTS (λmax at 734 nm) radical scavenging assay assessed the ability of NMIs to quench nitrogen radicals (RNS). […] These in vitro experiments have established M1 and M3 as effective antioxidants and further their ability to scavenge ROS in cellulo was assessed. Treatment of cells with H2O2 was known to generate ROS and cause DNA damage, protein oxidation, lipid peroxidation and mitochondrial dysfunction, which led to cell death. The neuronal cells were treated with H2O2 (200 μM) alone and with NMIs (20 μM) for 18 h and cell viability by MTT assay. […] The production of excess ROS by Aβ results in oxidative stress and elicits stress response.

SH-SY5Y cells [2] = assay: Neuronal cell rescue from Aβ toxicity (MTT); format: cell-based; settings: Aβ 10 μM
Description: Cell rescue from Aβ toxicity by NMIs were assessed in SH-SY5Y cells. The cells were seeded into 96 well plate at cell density of 25,000 cells per well and after 24 h the media was replaced with DMEM-F12 with low serum (2.5% FBS). After 6 h, cells were treated with Aβ (10 μM) alone and with NMIs (20 μM) in low serum media. Different concentrations of compound (10, 20 and 50 μM) were used to treat cells. For metal dependent studies, Aβ (10 μM) with metals (20 μM) in the absence and presence of NMIs (20 μM) was treated. The cells were incubated for 30 h and MTT assay was performed to calculate the percentage cell viability.
Compounds of the present disclosure (M1 to M4) were evaluated for their ability to rescue neuronal cells from Aβ toxicity by MTT assay.
Further, the effect of concentration of compounds of the present disclosure on the cell rescue was assessed. […] The ability of NMIs to rescue cells from metal-dependent Aβ toxicity were assessed in the presence of Cu (II) and Zn (II). Cells were treated with Aβ (10 μM) along with metal ions (20 μM) and NMIs (20 μM) for 30 h. Aβ in the presence of Cu (II) reduced cell viability to ˜62% and M3 treatment had rescued cells with viability to 85% (FIG. 12C). Aβ with Zn (II) viability reduced to ˜61% and M3 treatment rescued cells by improving the viability to ˜79% (FIG. 12D). […] These in-cellulo experiments confirmed the ability of M3 to effectively rescue neuronal cells from metal-independent and dependent Aβ toxicity.

Aβ42 = biological target: T2, Aβ42 (Homo sapiens, UniProt P05067); assay: Native PAGE and western blot of Aβ aggregated species; format: biochemical; settings: NMIs 20 μM; for size distribution of Aβ aggregated species, aggregation inhibition: Aβ 10 μM, FIGS. 1B and 2B; for LMW and HMW Aβ aggregates, dissolution samples: Aβ aggregates 10 μM, FIG. 4B
T2 construct: is a 42 amino acid proteolytic product from the amyloid precursor protein; purchased Invitrogen
Description: The samples were prepared by incubating Aβ42 with specific concentration of NMI compounds of present disclosure and metal ions for 48 h and then subjected to 6% native polyacrylamide gel electrophoresis (Native-PAGE) in tris-glycine buffer. The lower molecular weight aggregates permeabilized through the gel and resolved in the gel. Higher molecular aggregates stuck in the upper part of wells and potentially carried in gel. Then the protein was transferred to PVDF membrane for 4 h at cold condition maintained using ice cold transfer buffer and immersing the transfer apparatus in ice. Then the blots were continued similar to dot blots. […] It has been observed that the oligomers are a highly toxic species compared to Aβ fibrillar aggregates. The ability of NMIs (M3) to inhibit the formation of Aβ oligomers was assessed by dot blot assay. Aβ peptide (10 μM) was incubated with NMIs at 4° C. for 24 h followed by probing with A11 oligomer-specific antibody. […] Native PAGE and western blot analysis was carried out to understand the size distribution of Aβ aggregated species. […] In order to analyse the higher order aggregates not permeable in the gel matrix and the morphological characteristics, Aβ samples were subjected to atomic force microscopy (AFM) imaging.

[3] = modulators 20 μM, Aβ alone ~52%, FIG. 12A

T1 sequence (P05067 672-713 limits assumed): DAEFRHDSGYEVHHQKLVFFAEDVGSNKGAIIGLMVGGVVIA
T2 sequence (P05067 672-713 limits assumed): as above

| Compound | inhibition of the formation of Aβ fibrils (Aβ fibrils) [%] | cell viability (SH-SY5Y cells [1]) [%] | cell viability (SH-SY5Y cells [2]; [3]) | size distribution of Aβ aggregated species, aggregation inhibition (Aβ42) | LMW and HMW Aβ aggregates, dissolution samples (Aβ42) | IC50 (Aβ fibrils) [µM] | inhibition of Aβ aggregation (Aβ fibrils; 0.1 molar ratio) [%] | inhibition of Aβ aggregation (Aβ fibrils; 0.2 molar ratio) [%] | inhibition of Aβ aggregation (Aβ fibrils; 0.5 molar ratio) [%] | inhibition of Aβ aggregation (Aβ fibrils; 1 molar ratio) [%] | inhibition of Aβ aggregation (Aβ fibrils; 2 molar ratio) [%] | cell viability (SH-SY5Y cells [2]; 50 μM compound, control 54%, FIG. 12B) | viability at 5 µM (SH-SY5Y cells [2]; Homo sapiens, SH-SY5Y, 5 μM compound, control 54%, FIG. 12B) [%] | viability at 10 µM (SH-SY5Y cells [2]; Homo sapiens, SH-SY5Y, 10 μM compound, control 54%, FIG. 12B) [%] | viability at 20 µM (SH-SY5Y cells [2]; Homo sapiens, SH-SY5Y, 20 μM compound, control 54%, FIG. 12B) [%] |
| --- | --- | --- | --- | --- | --- | --- | --- | --- | --- | --- | --- | --- | --- | --- | --- |
| CN(C)c1ccc2c3c(cccc13)C(=O)N(CCc1ccc(O)c(O)c1)C2=O [M1, 2-(3,4-dihydroxyphenethyl)-6-(dimethylamino)-1H-benzo[de]isoquinoline-1,3(2H)-dione] | ~95 | 89 | lowered alleviation of the Aβ toxicity | reduction of different Aβ species | effectively inhibited the formation of LMW and HMW Aβ aggregates |  |  |  |  |  |  |  |  |  |  |
| O=C1c2cccc3c(N(Cc4ccccn4)Cc4ccccn4)ccc(c23)C(=O)N1CCc1ccc(O)c(O)c1 [M3, 6-(bis(pyridin-2-ylmethyl)amino)-2-(3,4-dihydroxyphenethyl)-1H-benzo[de]isoquinoline-1,3(2H)-dione] | 94 | 91 | ~75% | reduction of different Aβ species | effectively inhibited the formation of LMW and HMW Aβ aggregates | 1 | 37 | 42 | 55 | 74 | 90 | near-complete rescue | 68 | 70 | 83 |
